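96-well plates; 48 h exposure; 5 concentrations. Endpoints by linear interpolation between flanking doses. Not reached: highest tested concentration assigned. At the GI50, growth is halved.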 Active and inactive are the calls of the source. Cut-off read from the data, not from the text of the source: active = GI50 up to about 1.1 µM and inactive = higher.
How the values were obtained:
Assay in all cases: growth of human tumour cells (NCI), 48 h
[1] = system: SNB-75
[2] = system: HOP-92
[3] = system: MDA-MB-435
[4] = system: OVCAR-5
[5] = system: LOX IMVI
[6] = system: OVCAR-4
[7] = system: T47D
[8] = system: COLO 205
[9] = system: MOLT-4
[10] = system: Malme-3M
[11] = system: ACHN
[12] = system: 786-0
[13] = system: SF-295
[14] = system: NCI-H23
[15] = system: NCI-H460
[16] = system: RPMI-8226
[17] = system: HOP-62
[18] = system: IGROV-1
[19] = system: K562
[20] = system: DU-145

Measured: GI50

CCCCOc1c(C(=O)O)cc(Br)cc1C(=O)O
inactive: [1] > 100 µM | [2] > 100 µM | [3] > 100 µM | [4] > 100 µM | [5] > 100 µM | [6] > 100 µM | [7] > 100 µM | [8] > 100 µM | [9] > 100 µM | [10] > 100 µM | [11] > 100 µM | [12] > 100 µM | [13] > 100 µM | [14] > 100 µM | [15] > 100 µM | [16] > 100 µM | [17] > 100 µM | [18] > 100 µM | [19] > 100 µM

N#C/C(N)=C(C#N)/N=C/NCCO
inactive: [1] > 100 µM | [3] > 100 µM | [4] > 100 µM | [5] > 100 µM | [6] > 100 µM | [7] > 100 µM | [8] > 100 µM | [20] > 100 µM | [9] > 100 µM | [10] > 100 µM | [11] > 100 µM | [12] > 100 µM | [13] > 100 µM | [14] > 100 µM | [15] > 100 µM | [16] > 100 µM | [17] > 100 µM | [18] > 100 µM | [19] > 100 µM

O=C(CCc1ccccc1)n1cccc1CO
inactive: [1] > 100 µM | [3] > 100 µM | [4] > 100 µM | [5] > 100 µM | [6] > 100 µM | [7] 96.4 µM | [8] > 100 µM | [20] > 100 µM | [9] > 100 µM | [10] > 100 µM | [11] > 100 µM | [12] > 100 µM | [13] > 100 µM | [14] > 100 µM | [15] > 100 µM | [16] > 100 µM | [17] > 100 µM | [18] > 100 µM | [19] > 100 µM

CN(C)S(=O)(=O)n1ccnc1
inactive: [1] > 100 µM | [2] > 100 µM | [3] > 100 µM | [4] > 100 µM | [5] > 100 µM | [6] > 100 µM | [7] > 100 µM | [8] > 100 µM | [9] > 100 µM | [10] > 100 µM | [11] > 100 µM | [12] > 100 µM | [13] > 100 µM | [14] > 100 µM | [15] > 100 µM | [16] > 100 µM | [17] > 100 µM | [18] > 100 µM | [19] > 100 µM

CSC1=C(C#N)C(=S)N=C(N)C1C(=O)Nc1ccc(C)cc1 (configuration not stated)
inactive: [1] > 100 µM | [3] > 100 µM | [4] > 100 µM | [5] > 100 µM | [6] > 100 µM | [7] > 100 µM | [8] > 100 µM | [20] > 100 µM | [9] > 100 µM | [10] > 100 µM | [12] > 100 µM | [14] > 100 µM | [15] > 100 µM | [16] > 100 µM | [18] > 100 µM | [19] > 100 µM

CCC1(c2ccncc2)CCC(=O)NC1=O (configuration not stated) [ROGLETIMIDE]
inactive: [1] > 100 µM | [2] 52.4 µM | [4] > 100 µM | [5] > 100 µM | [6] > 100 µM | [8] > 100 µM | [9] > 100 µM | [10] > 100 µM | [11] > 100 µM | [12] > 100 µM | [13] > 100 µM | [14] > 100 µM | [15] > 100 µM | [16] > 100 µM | [17] > 100 µM | [18] > 100 µM | [19] > 100 µM

Cc1ccccc1NC(=O)C1C(=O)N(c2ccccc2C)C(=O)/C1=N\N (configuration not stated)
inactive: [1] > 100 µM | [2] > 100 µM | [4] > 100 µM | [5] > 100 µM | [6] > 100 µM | [8] > 100 µM | [9] > 100 µM | [10] > 100 µM | [11] > 100 µM | [12] > 100 µM | [13] > 100 µM | [14] > 100 µM | [15] > 100 µM | [16] > 100 µM | [17] > 100 µM | [18] > 100 µM | [19] > 100 µM

CC1=C(C(=O)Nc2ccccc2C)C(c2ccc(C3C(C(=O)Nc4ccccc4C)=CNC=C3C(=O)Nc3ccccc3C)cc2)C(C(=O)Nc2ccccc2C)=C(C)N1
inactive: [1] 19.5 µM | [2] 22.4 µM | [4] 21.6 µM | [5] 7.08 µM | [6] 14.7 µM | [8] 21 µM | [9] 4.5 µM | [10] 19.1 µM | [11] 16.4 µM | [12] 15.1 µM | [13] 19.3 µM | [14] 19.1 µM | [15] 21.4 µM | [16] 15.8 µM | [17] 25.4 µM | [18] 18.6 µM | [19] 9.27 µM

O=C1c2cccc3c(Cl)ccc(c23)C(=O)N1CCCN1CCN(CCCN2C(=O)c3cccc4c(Cl)ccc(c34)C2=O)CC1
inactive: [1] 40.2 µM | [2] > 100 µM | [4] > 100 µM | [5] > 100 µM | [6] > 100 µM | [8] > 100 µM | [9] 57.3 µM | [10] > 100 µM | [11] 81.8 µM | [12] 64.4 µM | [13] 97.1 µM | [14] 97.1 µM | [15] > 100 µM | [16] > 100 µM | [17] > 100 µM | [18] > 100 µM | [19] 86.1 µM

c1ccc([P+](c2ccccc2)(c2ccccc2)c2ccc([P+](c3ccccc3)(c3ccccc3)c3ccccc3)c3ccccc23)cc1
inactive: [1] 70.1 µM | [3] 84.3 µM | [4] > 100 µM | [5] 30.5 µM | [7] 54.8 µM | [8] 52.7 µM | [20] 67.3 µM | [9] > 100 µM | [10] > 100 µM | [11] > 100 µM | [12] > 100 µM | [13] > 100 µM | [14] 57.4 µM | [15] 61.4 µM | [16] 57.1 µM | [17] > 100 µM | [18] 94.8 µM | [19] 29.6 µM

O=c1oc2ccc3ccccc3c2cc1-c1cn2c(n1)sc1ccccc12
inactive: [1] > 100 µM | [2] 55.2 µM | [3] > 100 µM | [4] > 100 µM | [5] > 100 µM | [6] > 100 µM | [8] > 100 µM | [20] > 100 µM | [9] 3.06 µM | [10] > 100 µM | [11] > 100 µM | [12] > 100 µM | [13] > 100 µM | [14] > 100 µM | [15] > 100 µM | [16] > 100 µM | [17] > 100 µM | [18] > 100 µM | [19] 2.69 µM

Reference: ChEMBL document CHEMBL1201862, “PubChem BioAssay data set” (2004)
